PubChem BioAssay AID2060509 (Molecular Pharmacology Branch, DTP, NCI, 2025)

Test system: 485176-168-R4-J1-PDC spheroids with HUVEC/MSC, viability
Test: Anticancer human tumor 485176-168-R4-J1-PDC patient-derived pancreatic adenocarcinoma cell line growth inhibition [GQUAD]
Settings: for IC50: curve of first compound; for viability, T/C: stronger effect = lower value
How it was run: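 Viability of tumor cells grown as complex spheroids with endothelial and stromal cells, exposed to drug combinations. Top concentration at or near clinical Cmax (else 10 microM), diluted in half-log increments.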

[1] = second compound 0.0316 µM, first compound 0.0316 µM
[2] = second compound 0.0316 µM, first compound 0.1 µM
[3] = second compound 0.0316 µM, first compound 0.316 µM
[4] = second compound 0.0316 µM, first compound 1 µM
[5] = second compound 0.0316 µM, first compound 3.16 µM
[6] = second compound 0.0316 µM, first compound 10 µM
[7] = second compound 0.1 µM, first compound 0.0316 µM
[8] = second compound 0.1 µM, first compound 0.1 µM
[9] = second compound 0.1 µM, first compound 0.316 µM
[10] = second compound 0.1 µM, first compound 1 µM
[11] = second compound 0.1 µM, first compound 3.16 µM
[12] = second compound 0.1 µM, first compound 10 µM
[13] = second compound 0.316 µM, first compound 0.0316 µM
[14] = second compound 0.316 µM, first compound 0.1 µM
[15] = second compound 0.316 µM, first compound 0.316 µM
[16] = second compound 0.316 µM, first compound 1 µM
[17] = second compound 0.316 µM, first compound 3.16 µM
[18] = second compound 0.316 µM, first compound 10 µM
[19] = second compound 1 µM, first compound 0.0316 µM
[20] = second compound 1 µM, first compound 0.1 µM
[21] = second compound 1 µM, first compound 0.316 µM
[22] = second compound 1 µM, first compound 1 µM
[23] = second compound 1 µM, first compound 3.16 µM
[24] = second compound 1 µM, first compound 10 µM
[25] = second compound 3.16 µM, first compound 0.0316 µM
[26] = second compound 3.16 µM, first compound 0.1 µM
[27] = second compound 3.16 µM, first compound 0.316 µM
[28] = second compound 3.16 µM, first compound 1 µM
[29] = second compound 3.16 µM, first compound 3.16 µM
[30] = second compound 3.16 µM, first compound 10 µM
[31] = second compound 10 µM, first compound 0.0316 µM
[32] = second compound 10 µM, first compound 0.1 µM
[33] = second compound 10 µM, first compound 0.316 µM
[34] = second compound 10 µM, first compound 1 µM
[35] = second compound 10 µM, first compound 3.16 µM
[36] = second compound 10 µM, first compound 10 µM
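Also: spheroids exposed to compounds for seven days before readout.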
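For viability, T/C in this document: percent viability relative to DMSO vehicle control wells as 100%.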

COc1cccc2c1C(=O)c1c(O)c3c(c(O)c1C2=O)CC(O)(C(=O)CO)CC3OC1CC(N)C(O)C(C)O1 (stereo not drawn) + CN(C)c1ccc(Nc2c3ccc(NC(=O)CCN4CCCC4)cc3nc3cc(NC(=O)CCN4CCCC4)ccc23)cc1
IC50 (second compound 0.0316 µM): 0.271 µM
IC50 (second compound 0.1 µM): 0.263 µM
IC50 (second compound 0.316 µM): 0.417 µM
IC50 (second compound 1 µM): 0.412 µM
IC50 (second compound 3.16 µM): 0.396 µM
IC50 (second compound 10 µM): 0.305 µM
viability, T/C [1]: 104%
viability, T/C [2]: 65.5%
viability, T/C [3]: 59.2%
viability, T/C [4]: 15.4%
viability, T/C [5]: 3.54%
viability, T/C [6]: 0.22%
viability, T/C [7]: 95.2%
viability, T/C [8]: 70.9%
viability, T/C [9]: 49.2%
viability, T/C [10]: 17.8%
viability, T/C [11]: 2.43%
viability, T/C [12]: 0.16%
viability, T/C [13]: 84.9%
viability, T/C [14]: 67%
viability, T/C [15]: 62%
viability, T/C [16]: 22.5%
viability, T/C [17]: 3.97%
viability, T/C [18]: 0.2%
viability, T/C [19]: 99.5%
viability, T/C [20]: 78.2%
viability, T/C [21]: 64.1%
viability, T/C [22]: 17.4%
viability, T/C [23]: 4.15%
viability, T/C [24]: 0.16%
viability, T/C [25]: 84.2%
viability, T/C [26]: 83.2%
viability, T/C [27]: 53.4%
viability, T/C [28]: 25.7%
viability, T/C [29]: 2.96%
viability, T/C [30]: 0.21%
viability, T/C [31]: 72.2%
viability, T/C [32]: 68.4%
viability, T/C [33]: 48.5%
viability, T/C [34]: 22.9%
viability, T/C [35]: 5.36%
viability, T/C [36]: 0.33%

CC1COCCN1c1cc(C2(O)CC3CCC(C2)O3)c2cnn(-c3ccn[nH]3)c2n1 (stereo not drawn) + CN(C)c1ccc(Nc2c3ccc(NC(=O)CCN4CCCC4)cc3nc3cc(NC(=O)CCN4CCCC4)ccc23)cc1
IC50 (second compound 0.0316 µM): 0.101 µM
IC50 (second compound 0.1 µM): 0.12 µM
IC50 (second compound 0.316 µM): 0.0985 µM
IC50 (second compound 1 µM): 0.091 µM
IC50 (second compound 3.16 µM): 0.125 µM
IC50 (second compound 10 µM): 0.0996 µM
viability, T/C [1]: 79.4%
viability, T/C [2]: 49.7%
viability, T/C [3]: 25.9%
viability, T/C [4]: 9.43%
viability, T/C [5]: 12%
viability, T/C [6]: 7.83%
viability, T/C [7]: 66%
viability, T/C [8]: 56.1%
viability, T/C [9]: 16.4%
viability, T/C [10]: 9.58%
viability, T/C [11]: 11.2%
viability, T/C [12]: 8.08%
viability, T/C [13]: 70.3%
viability, T/C [14]: 49.6%
viability, T/C [15]: 23%
viability, T/C [16]: 10.9%
viability, T/C [17]: 9.72%
viability, T/C [18]: 8.92%
viability, T/C [19]: 80.3%
viability, T/C [20]: 47.1%
viability, T/C [21]: 21.6%
viability, T/C [22]: 9.7%
viability, T/C [23]: 10.3%
viability, T/C [24]: 8.64%
viability, T/C [25]: 72.2%
viability, T/C [26]: 54.2%
viability, T/C [27]: 30%
viability, T/C [28]: 10.4%
viability, T/C [29]: 11.8%
viability, T/C [30]: 7.71%
viability, T/C [31]: 67.1%
viability, T/C [32]: 50.2%
viability, T/C [33]: 21.1%
viability, T/C [34]: 11.6%
viability, T/C [35]: 9.48%
viability, T/C [36]: 6.52%

CC(=O)O[C@H]1C(=O)[C@@]2(C)[C@H]([C@H](OC(=O)c3ccccc3)[C@]3(O)C[C@H](OC(=O)[C@H](O)[C@@H](NC(=O)c4ccccc4)c4ccccc4)C(C)=C1C3(C)C)[C@]1(OC(C)=O)CO[C@@H]1C[C@@H]2O + CN(C)c1ccc(Nc2c3ccc(NC(=O)CCN4CCCC4)cc3nc3cc(NC(=O)CCN4CCCC4)ccc23)cc1
IC50 (second compound 0.0316 µM): < 0.0316 µM
IC50 (second compound 0.1 µM): < 0.0316 µM
IC50 (second compound 0.316 µM): < 0.0316 µM
IC50 (second compound 1 µM): < 0.0316 µM
IC50 (second compound 3.16 µM): < 0.0316 µM
IC50 (second compound 10 µM): < 0.0316 µM
viability, T/C [1]: 34.3%
viability, T/C [2]: 14.3%
viability, T/C [3]: 14.3%
viability, T/C [4]: 11.6%
viability, T/C [5]: 11%
viability, T/C [6]: 14.1%
viability, T/C [7]: 31.9%
viability, T/C [8]: 15%
viability, T/C [9]: 14.1%
viability, T/C [10]: 14.9%
viability, T/C [11]: 12%
viability, T/C [12]: 11.3%
viability, T/C [13]: 33.3%
viability, T/C [14]: 15.6%
viability, T/C [15]: 12.9%
viability, T/C [16]: 13.7%
viability, T/C [17]: 11.5%
viability, T/C [18]: 10.9%
viability, T/C [19]: 31%
viability, T/C [20]: 13.3%
viability, T/C [21]: 12.2%
viability, T/C [22]: 14%
viability, T/C [23]: 11.5%
viability, T/C [24]: 9.76%
viability, T/C [25]: 36.9%
viability, T/C [26]: 11.3%
viability, T/C [27]: 16.1%
viability, T/C [28]: 13.6%
viability, T/C [29]: 12.5%
viability, T/C [30]: 11.3%
viability, T/C [31]: 28.3%
viability, T/C [32]: 12.4%
viability, T/C [33]: 13.1%
viability, T/C [34]: 11.5%
viability, T/C [35]: 10.6%
viability, T/C [36]: 12%

Cc1[nH]c2ccccc2c1CCNCc1ccc(/C=C/C(=O)NO)cc1 + Cc1cnc(CNC(=O)c2c(=O)c3ccc(N4CCCN(C)CC4)nc3n3c2sc2ccccc23)cn1
IC50 (second compound 0.0316 µM): 0.094 µM
IC50 (second compound 0.1 µM): 0.0392 µM
IC50 (second compound 0.316 µM): 0.011 µM
IC50 (second compound 1 µM): < 0.000999 µM
IC50 (second compound 3.16 µM): < 0.000999 µM
IC50 (second compound 10 µM): < 0.000999 µM
viability, T/C (second compound 0.0316 µM, first compound 0.000999 µM): 99.4%
viability, T/C (second compound 0.0316 µM, first compound 0.00316 µM): 74.4%
viability, T/C (second compound 0.0316 µM, first compound 0.00999 µM): 85.6%
viability, T/C [1]: 60.5%
viability, T/C (second compound 0.0316 µM, first compound 0.0999 µM): 57.5%
viability, T/C [3]: 12.1%
viability, T/C (second compound 0.1 µM, first compound 0.000999 µM): 74.5%
viability, T/C (second compound 0.1 µM, first compound 0.00316 µM): 89.6%
viability, T/C (second compound 0.1 µM, first compound 0.00999 µM): 49.4%
viability, T/C [7]: 51.7%
viability, T/C (second compound 0.1 µM, first compound 0.0999 µM): 44.3%
viability, T/C [9]: 9.46%
viability, T/C (second compound 0.316 µM, first compound 0.000999 µM): 63.3%
viability, T/C (second compound 0.316 µM, first compound 0.00316 µM): 59.6%
viability, T/C (second compound 0.316 µM, first compound 0.00999 µM): 53.5%
viability, T/C [13]: 35.3%
viability, T/C (second compound 0.316 µM, first compound 0.0999 µM): 27.2%
viability, T/C [15]: 6.34%
viability, T/C (second compound 1 µM, first compound 0.000999 µM): 44.6%
viability, T/C (second compound 1 µM, first compound 0.00316 µM): 52.6%
viability, T/C (second compound 1 µM, first compound 0.00999 µM): 45.4%
viability, T/C [19]: 30.7%
viability, T/C (second compound 1 µM, first compound 0.0999 µM): 23.8%
viability, T/C [21]: 0.94%
viability, T/C (second compound 3.16 µM, first compound 0.000999 µM): 47.2%
viability, T/C (second compound 3.16 µM, first compound 0.00316 µM): 39.2%
viability, T/C (second compound 3.16 µM, first compound 0.00999 µM): 45%
viability, T/C [25]: 33.1%
viability, T/C (second compound 3.16 µM, first compound 0.0999 µM): 14%
viability, T/C [27]: 0.27%
viability, T/C (second compound 10 µM, first compound 0.000999 µM): 36.2%
viability, T/C (second compound 10 µM, first compound 0.00316 µM): 37.5%
viability, T/C (second compound 10 µM, first compound 0.00999 µM): 32.5%
viability, T/C [31]: 26.5%
viability, T/C (second compound 10 µM, first compound 0.0999 µM): 11.1%
viability, T/C [33]: 0.69%
